Experimental data from patent US20240132484A1, “BROAD SPECTRUM ANTIVIRAL COMPOUNDS TARGETING THE SKI COMPLEX” (priority 2020, published 2024).
“And” between values parts separate entries of the source, which are not always exact repeats. Equal entries are not always repeated. Where two headings read alike, the source gives them in different places.

How the values were obtained:
SARS2 = type: cell-based, SARS-CoV-2; conditions: for Percentage Infection Relative to Appropriate DMSO Control with Avg Background Subtraction: Nunc Celigo plates; for Infection Data, Average, Mean: average of Exp 1-2 (SMW491, SMW492)
cells (nuclei count) = conditions: for Toxicity Data, Average, Mean percentage relative to DMSO control: Average of Exp 1 (SMW491) and Exp 2 (SMW492)

With CCN(CC)CCN(Cc1ccccn1)C(=O)c1cccs1 [SILCS37] as the compound, how does the “Percentage Infection Relative to Appropriate DMSO Control with Avg Background Subtraction” value (SARS2; Exp 1 (SMW491), 1 uM) read?
The value was 88.98% and 80.18%.

And the “Percentage Infection Relative to Appropriate DMSO Control with Avg Background Subtraction” value (SARS2; Exp 1 (SMW491), 5 uM)?
Its value is 95.46% and 97.68%.

What about the “Percentage Infection Relative to Appropriate DMSO Control with Avg Background Subtraction” value (SARS2; Exp 1 (SMW491), 10 uM) of the same compound?
The value was 109.85% and 92.25%.

And the “Percentage Infection Relative to Appropriate DMSO Control with Avg Background Subtraction” value (SARS2; Exp 1 (SMW491), 25 uM)?
Its value is 117.51% and 105.36%.

What about the “Percentage Infection Relative to Appropriate DMSO Control with Avg Background Subtraction” value (SARS2; Exp 1 (SMW491), 50 uM) of the same compound?
The value was 136.02% and 127.57%.

What about the “Percentage Infection Relative to Appropriate DMSO Control with Avg Background Subtraction” value (SARS2; Exp 2 (SMW492), 1 uM) of the same compound?
Its value is 80.82% and 84.84%.

What about the “Percentage Infection Relative to Appropriate DMSO Control with Avg Background Subtraction” value (SARS2; Exp 2 (SMW492), 5 uM) of the same compound?
The value was 71.36% and 74.06%.

And the “Percentage Infection Relative to Appropriate DMSO Control with Avg Background Subtraction” value (SARS2; Exp 2 (SMW492), 25 uM)?
Its value is 121.75% and 63.91%.

What about the “Percentage Infection Relative to Appropriate DMSO Control with Avg Background Subtraction” value (SARS2; Exp 2 (SMW492), 50 uM) of the same compound?
Its value is 88.75% and 46.65%.

What about the “Percentage Inhibition Average 1 μM” value (SARS2; SARS2, 1 μM) of the same compound?
Its value is 16.29%.

What about the “Screening data (Relative infection to DMSO controls) Average 1 μM” value (SARS2; SARS2, 1 μM, 100=DMSO control) of the same compound?
Its value is 83.71.

And the “Percentage Inhibition Average 5 μM” value (SARS2; SARS2, 5 μM)?
The value was 15.36%.

What about the “Screening data (Relative infection to DMSO controls) Average 5 μM” value (SARS2; SARS2, 5 μM, 100=DMSO control) of the same compound?
The value was 84.64.

What about the “Percentage Inhibition Average 10 μM” value (SARS2; SARS2, 10 μM) of the same compound?
The value was 23.94%.

What about the “Screening data (Relative infection to DMSO controls) Average 10 μM” value (SARS2; SARS2, 10 μM, 100=DMSO control) of the same compound?
The value was 76.06.

What about the “Percentage Inhibition Average 25 μM” value (SARS2; SARS2, 25 μM) of the same compound?
The value was −2.13%.

What about the “Screening data (Relative infection to DMSO controls) Average 25 μM” value (SARS2; SARS2, 25 μM, 100=DMSO control) of the same compound?
The value was 102.13.

What about the “Percentage Inhibition Average 50 μM” value (SARS2; SARS2, 50 μM) of the same compound?
The value was 0.25%.

What about the “Screening data (Relative infection to DMSO controls) Average 50 μM” value (SARS2; SARS2, 50 μM, 100=DMSO control) of the same compound?
Its value is 99.75.

What about the “Average (relative infection to DMSO over the 5 tested concentrations)” value (SARS2; SARS2, average over 1 to 50 uM, 100=DMSO control) of the same compound?
Its value is 89.26.

What about the “Infection Data, Average, Mean” value (SARS2; n 4, 1 uM) of the same compound?
The value was 83.71%.

And the “Infection Data, Average, Mean” value (SARS2; n 4, 5 uM)?
Its value is 84.64%.

What about the “Infection Data, Average, Mean” value (SARS2; n 4, 10 uM) of the same compound?
Its value is 76.06%.

What about the “Infection Data, Average, Mean” value (SARS2; n 4, 25 uM) of the same compound?
The value was 102.13%.

What about the “Infection Data, Average, Mean” value (SARS2; n 4, 50 uM) of the same compound?
Its value is 99.75%.

And the “Relative cell count to DMSO controls, Average 1 μM” value (cells (nuclei count); 1 μM, toxicity data, 100=DMSO control)?
The value was 108.95.

What about the “Relative cell count to DMSO controls, Average 5 μM” value (cells (nuclei count); 5 μM, toxicity data, 100=DMSO control) of the same compound?
The value was 110.16.

And the “Relative cell count to DMSO controls, Average 10 μM” value (cells (nuclei count); 10 μM, toxicity data, 100=DMSO control)?
Its value is 116.31.

What about the “Relative cell count to DMSO controls, Average 25 μM” value (cells (nuclei count); 25 μM, toxicity data, 100=DMSO control) of the same compound?
The value was 104.07.

And the “Relative cell count to DMSO controls, Average 50 μM” value (cells (nuclei count); 50 μM, toxicity data, 100=DMSO control)?
Its value is 75.29.

What about the “Toxicity Data, Average, Mean percentage relative to DMSO control” value (cells (nuclei count); n=4, 1 uM) of the same compound?
The value was 108.95%.

What about the “Toxicity Data, Average, Mean percentage relative to DMSO control” value (cells (nuclei count); n=4, 5 uM) of the same compound?
Its value is 110.16%.

What about the “Toxicity Data, Average, Mean percentage relative to DMSO control” value (cells (nuclei count); n=4, 10 uM) of the same compound?
The value was 116.31%.

What about the “Toxicity Data, Average, Mean percentage relative to DMSO control” value (cells (nuclei count); n=4, 25 uM) of the same compound?
The value was 104.07%.

And the “Toxicity Data, Average, Mean percentage relative to DMSO control” value (cells (nuclei count); n=4, 50 uM)?
Its value is 75.29%.

And the “Relative cell count to DMSO controls, Average (for correlation analysis)” value (cells (nuclei count); average value over the 5 tested concentrations (1 to 50 uM))?
The value was 102.96.
